Assays:
[1] = system: SF3B3-on switch; assay: Candidate minigene (SF3B3, BENC1, C12orf4, PDXDC2) switch-on luciferase assay in HEK293 cells; type: cell-based, Human
Procedure: Cell culture, transfection, and LMI070/RG7800 treatment. Human embryonic kidney (HEK293) cells (obtained from CHOP Research Vector Core stock) were maintained in DMEM media containing 10% Fetal Bovine Serum (FBS), 1% L-Glutamine and 1% penicillin/streptomycin at 37° C. with 5% CO2. Cells were cultured in 24 well plates and transfected at 80-90% confluence using Lipofectamine 2000 transfection reagent, according to the manufacturer’s protocol. For all experiments, 4 hours after plasmid transfection, cells were treated with LMI070 (MedChemExpress, HY-19620, suspended in DMSO) or RG7800 (MedChemExpress, HY-101792A, suspended in H2O) at the indicated concentrations. Cells were tested for mycoplasma by Research Vector Core. None of the cells used in the study were listed in ICLAC database of commonly misidentified cell lines.
In vitro luciferase assays. HEK293 cells were cultured in DMEM (10% FBS (v/v), 1% Pen/ Strep (v/v), and 1% L-glutamine (v/v) in a 24-well plate. At 70%-80% confluence, cells were co-transfected with the Xon.Firefly luciferase cassettes (0.3 µg/well) and a SV40p-Renilla luciferase cassette as transfection control (0.02 µg/well). Four hours after transfections cells were treated either with LMI070 or RG7800 at indicated concentrations. At 24 h after transfection, cells were rinsed with ice-cold PBS and Renilla and Firefly luciferase activities were assessed using the Dual-Luciferase Reporter Assay System (Promega) according to the manufacturer’s instructions. Luminescent readouts were obtained with a Monolight 3010 luminometer (Pharmigen). Relative light units (RLUs) were calculated as the quotient of […] RLUs and results expressed relative to mock treated control cells.
Next, a series of switch-on cassettes were developed from the top 4 LMI070-responsive exons found in the RNA-Seq dataset. […] HEK293 cells were transfected with the candidate cassettes, treated with LMI070, and luciferase activity or eGFP expression determined 24 h later. […]

[2] = system: HEK293 cells; assay: Differential gene expression analysis (DESeq2) of LMI070 vs DMSO treated HEK293 cells; type: cell-based, Human
Procedure: Differential gene expression analysis was performed using DESeq2 to compare samples from the LMI070 and DMSO conditions (Love et al., 2014). To visualize the abundance of meaningfully differentially expressed genes, a volcano plot was generated with a .05 Benjamini-Hochberg adjusted p-value threshold and a 0.1 log fold change threshold.
The pseudoexons identified in LMI070 treated samples share a strong 3′ AGAGUA motif consistent with the previously identified U1 RNA binding site targeted by LMI070 (FIG. 2C) (Cheung et al., 2018). To experimentally validate the identified LMI070 induced splicing events, primer pairs binding the flanking exons of the top 5 candidate genes (FIGS. 2A and 2F-2J) were generated. […] The impact of LMI070 treatment on global gene expression was evaluated by assessing differential expression analysis.

[3] = p < 0.05, Benjamin-Hochberg correction, LMI070 vs DMSO

SMILES: CC1(C)CC(Oc2ccc(-c3ccc(-c4cn[nH]c4)cc3O)nn2)CC(C)(C)N1 [LMI070, 5-(1H-Pyrazol-4-yl)-2-(6-((2,2,6,6-tetramethylpiperidin-4-yl)oxy)pyridazin-3-yl)phenol]
- luciferase expression of each candidate cassette in response to LMI070 ([1]; SF3B3, BENC1, C12orf4, PDXDC2 cassettes, 24 h): Increased luciferase expression
- luciferase induction of the SF3B3-on switch ([1]; in response to LMI070, relative to DMSO, 24 h): more than 100 fold
- fold-change in luciferase activity in response to LMI070, original intron ([1]; original SF3B3-on construct compared with alternate intron cassettes): > 200 fold
- downregulated genes after filtering out low fold-change values ([2]; filtered <0.1 fold): 9
- upregulated genes after filtering out low fold-change values ([2]; filtered <0.1 fold): 5
- downregulated genes passing the threshold for significance [2, 3]: 24
- upregulated genes passing the threshold for significance [2, 3]: 6

— patent US20230340498A1, “COMPOSITIONS AND METHODS FOR INDUCIBLE ALTERNATIVE SPLICING REGULATION OF GENE EXPRESSION” (The Children's Hospital of Philadelphia, priority 2020, published 2023)
